{"source": "patent US20220112192A1", "about": "“COMPOUNDS AND METHODS OF USE THEREOF FOR TREATMENT OF CANCER” (ARAXES PHARMA LLC, priority 2018, published 2022)", "data": [{"target": "T1, KRAS G12C 1-169, his-tagged protein, GDP-loaded (Homo sapiens, UniProt P01116, G12C)", "T1 construct": "KRAS G12C 1-169, his-tagged protein, GDP-loaded", "test": "Biochemical assay: covalent modification of KRAS G12C measured by mass spectrometry", "format": "binding", "settings": "modification of KRAS G12C at 10 minutes", "protocol": "Test compounds were prepared as 10 mM stock solutions in DMSO (Fisher cat #BP-231-100). KRAS G12C 1-169, his-tagged protein, GDP-loaded was diluted to 2 μM or 0.5 μM in buffer (20 mM Hepes, 150 mM NaCl, 1 mM MgCl2).\nCompounds were tested for activity as follows: Compounds were diluted to 50× final test concentration in DMSO in 96-well storage plates. Compound stock solutions were vortexed before use and observed carefully for any sign of precipitation. Dilutions were as follow: • For 100 μM final compound concentration, compounds were diluted to 5000 μM (5 μL 10 mM compound stock+5 μL DMSO and mixed well by pipetting. • For 30 μM final compound concentration, compounds were diluted to 1500 μM (3 μL 10 mM compound stock+17 μL DMSO) and mixed well by pipetting. • For 10 μM final compound concentration, compounds were diluted to 500 μM (2 μL 10 mM compound stock+38 μL DMSO) and mixed well by pipetting. 49 μL of the stock protein solution was added to each well of a 96-well PCR plate (Fisher cat #1423027). 1 μL of the diluted 50× compounds were added to appropriate wells in the PCR plate using 12-channel pipettor. Reactions were mixed carefully and thoroughly by pipetting up/down with a 200 μL multi-channel pipettor. The plate was sealed well with aluminum plate seal, and stored in drawer at room temperature for 10 minutes, 30 minutes, 2 hours or 24 hours. 5 μL of 2% formic acid (Fisher cat #A117) in de-ionized H2O was then added to each well followed by mixing with a pipette. The plate was then resealed with aluminum seal and stored on dry ice until analyzed as described below.\nThe above described assays are analyzed by mass spectrometry according to one of the following two procedures:\nThe MS instrument was set to positive polarity, 2 GHz resolution, and low mass (1700) mode and allowed to equilibrate for 30 minutes. The instrument was then calibrated, switched to acquisition mode and the appropriate method loaded.\nAfter another 30 minute equilibration time, a blank batch (i.e., buffer) was run to ensure equipment is operating properly. The samples are thawed at 37° C. for 10 minutes, briefly centrifuged, and transferred to the bench top. Wells A1 and H12 were spiked with 1 μL 500 μM internal standard peptide, and the plates centrifuged at 2000×g for 5 minutes. The method was then run and masses of each individual well recorded.\nThe masses (for which integration data is desired) for each well were pasted into the platemap and exported from the analysis. Masses for the internal standards were exported as well. The data at 50 ppm was extracted for the +19 charge state, and identity of well A1 was assigned using the internal standard spike and integrated. Peak data was exported as a TOF list and the above steps are repeated individually, for the +20, 21, 22, 23, 24, and 25 charge states.\n? -Exactive Assay:\nThe masses and peak intensities of KRAS G12C protein species were measured using a Dionex RSLCnano system (Thermo Scientific) connected to a Q Exactive Plus mass spectrometer (Thermo Scientific). […] of sample was each loaded onto a Aeris™ […] WIDEPORE C4 200 Å, LC Column 50×2.1 mm column maintained at 40° C. at a flow rate of 600 μL/min with 20% Solvent A (0.1% formic acid in H2O) and […] (0.1% formic acid in acetonitrile). The liquid chromatography conditions were 20% solvent B for 1 minute, 20% to 60% solvent B for 1.5 minutes, 60% to 90% solvent for 0.5 minute, 90% solvent B for 0.2 minute, 90% to 20% solvent B for 0.2 minute, and then equilibrated for 1.6 minutes before the following sample injection. The flow rate was maintained at 600 μL/min throughout sample analysis.\nThe mass spectrometer was operated in profile mode at a resolution of 17500, 5 microscans, using 50 msec max injection time and an AGC target of 1×10^6, and a full mass range from 800-1850 m/z was recorded. The HCD trapping gas was optimized for maximum sensitivity for intact proteins. […]", "values": [{"molecule": "1-(6-(6-chloro-7-(5-methyl-1H-indazol-4-yl)-2-(((S)-1-methylpyrrolidin-2-yl)methoxy)-8-(2,2,2-trifluoroethoxy)quinazolin-4-yl)-2,6-diazaspiro[3.4]octan-2-yl)prop-2-en-1-one [Compound I-75]", "Binding %": "+++ (+++ indicates binding activity greater than 85% at 10 minutes)"}, {"molecule": "1-(6-(7-(5-methyl-1H-indazol-4-yl)-2-(((S)-1-methylpyrrolidin-2-yl)methoxy)-8-(2,2,2-trifluoroethoxy)-6-vinylquinazolin-4-yl)-2,6-diazaspiro[3.4]octan-2-yl)prop-2-en-1-one [Compound I-74]", "Binding %": "++ (++ indicates binding activity from 50 to 85% at 10 minutes)"}, {"molecule": "C=CC(=O)C1CC2(CCN1c1nc(=O)n(-c3ccccc3C(C)C)c3cc(-c4c(C)ccc5[nH]ncc45)c(Cl)cc13)CNC2", "note": "(single isomer, unassigned) [II-5a, 4-(6-acryloyl-2,7-diazaspiro[3.5]nonan-7-yl)-6-chloro-1-(6-isopropylphenyl)-7-(5-methyl-1H-indazol-4-yl)quinazolin-2(1H)-one]", "Binding %": "+ (+ indicates binding activity greater than 0% and up to 50% at 10 minutes)"}, {"molecule": "C=CC(=O)C1CC2(CCN1c1nc(=O)n(-c3ccccc3C(C)C)c3cc(-c4c(C)ccc5[nH]ncc45)c(Cl)cc13)CNC2", "note": "(single isomer, unassigned) [II-5b, 4-(6-acryloyl-2,7-diazaspiro[3.5]nonan-7-yl)-6-chloro-1-(6-isopropylphenyl)-7-(5-methyl-1H-indazol-4-yl)quinazolin-2(1H)-one]", "Binding %": "++ (++ indicates binding activity from 50 to 85% at 10 minutes)"}, {"molecule": "C=CC(=O)N1CC2(CCN(c3nc(OC[C@@H]4CCCN4C)nc4c(F)c(-c5c(C)ccc6cnn(C)c56)c(Cl)cc34)C2)C1", "note": "[Compound I-1, 1-(6-(6-chloro-7-(1,6-dimethyl-1H-indazol-7-yl)-8-fluoro-2-(((S)-1-methylpyrrolidin-2-yl)methoxy)quinazolin-4-yl)-2,6-diazaspiro[3.4]octan-2-yl)prop-2-en-1-one]", "Binding %": "++ (++ indicates binding activity from 50 to 85% at 10 minutes)"}, {"molecule": "C=CC(=O)N1CC2(CCN(c3nc(OC[C@@H]4CCCN4C)nc4c(F)c(-c5c(C)ccc6cnn(C)c56)c(Cl)cc34)CC2)C1", "note": "[Compound I-2, 1-(7-(6-chloro-7-(1,6-dimethyl-1H-indazol-7-yl)-8-fluoro-2-(((S)-1-methylpyrrolidin-2-yl)methoxy)quinazolin-4-yl)-2,7-diazaspiro[3.5]nonan-2-yl)prop-2-en-1-one]", "Binding %": "+++ (+++ indicates binding activity greater than 85% at 10 minutes)"}, {"molecule": "C=CC(=O)N1CC2(CCN(c3nc(OC[C@@H]4CCCN4C)nc4c(F)c(-c5c(C)ccc6cn[nH]c56)c(Cl)cc34)CC2)C1", "note": "[Compound I-3, 1-(7-(6-chloro-8-fluoro-7-(6-methyl-1H-indazol-7-yl)-2-(((S)-1-methylpyrrolidin-2-yl)methoxy)quinazolin-4-yl)-2,7-diazaspiro[3.5]nonan-2-yl)prop-2-en-1-one]", "Binding %": "+++ (+++ indicates binding activity greater than 85% at 10 minutes)"}, {"molecule": "C=CC(=O)N1CC2(CCN(c3nc(OC[C@@H]4CCCN4C)nc4c(F)c(-c5c(C)ccc6[nH]ncc56)c(Cl)cc34)CC2)C1", "note": "[Compound I-6, 1-(7-(6-chloro-8-fluoro-7-(5-methyl-1H-indazol-4-yl)-2-(((S)-1-methylpyrrolidin-2-yl)methoxy)quinazolin-4-yl)-2,7-diazaspiro[3.5]nonan-2-yl)prop-2-en-1-one]", "Binding %": "+++ (+++ indicates binding activity greater than 85% at 10 minutes)"}, {"molecule": "C=CC(=O)N1CC2(CCN(c3c(Cl)c(-c4c(C)ccc5[nH]ncc45)c(OCC(F)(F)F)c4nc(OC[C@@H]5CCCN5C)ncc34)C(C)C2)C1", "note": "(stereo partly drawn) [Compound I-76, 1-(7-(6-chloro-7-(5-methyl-1H-indazol-4-yl)-2-(((S)-1-methylpyrrolidin-2-yl)methoxy)-8-(2,2,2-trifluoroethoxy)quinazolin-5-yl)-6-methyl-2,7-diazaspiro[3.5]nonan-2-yl)prop-2-en-1-one]", "Binding %": "++ (++ indicates binding activity from 50 to 85% at 10 minutes)"}]}]}
